Positions count from the first letter of the chain named. “Also recorded” adds a separate entry of the source.
How the values were obtained:
[1] = biological target: T1, C143S Cav1 (Mus musculus, UniProt P49817, C143S); test: Biotin-switch assay for Cav1 S-nitrosation in transfected HEK cells, C143S Cav1; format: cell-based; conditions: SNAP 20 μM, 10 min
T1 construct: A full-length mouse Cav1 cDNA clone in pCMV-SPORT6 vector; expressed in transfected cells; host or cells: HEK cells
T1 sequence (P49817 1-178 C143S): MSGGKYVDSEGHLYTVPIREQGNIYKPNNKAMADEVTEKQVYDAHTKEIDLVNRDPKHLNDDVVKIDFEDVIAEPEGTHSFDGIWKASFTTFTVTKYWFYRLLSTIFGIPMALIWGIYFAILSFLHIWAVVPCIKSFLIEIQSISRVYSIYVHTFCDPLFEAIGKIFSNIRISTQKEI
Experimental: (§1) A full-length mouse Cav1 cDNA clone in pCMV-SPORT6 vector was acquired from Thermo Scientific (MGC mouse Cav1 cDNA, clone ID 4484857). The cysteine-to-serine Cav1 mutants (C133S, C143S and C156S) were generated from this WT mouse Cav1 clone using the QuickChange II Site-Directed Mutagenesis kit (Agilent Technologies) according to the manufacturer's instructions.
(§2) Transfection of HEK cells with designated plasmids was conducted using Lipofectamine 2000 according to manufacturer's protocol.
(§3) S-nitrosated Cav1 was detected in cells (isolated ventricular cardiomyocytes from control and ACES/8 mice or HEK cells transfected with WT Cav1 or Cav1 mutants [C156S, C143S or C133S], with or without NO donor, SNAP [20 μM, 10 min], treatment) using the methods described in Jaffrey et al., Protein S-nitrosylation: a physiological signal for neuronal nitric oxide, Nat Cell Biol. 2001, 3:193-197; and Haendeler et al., Redox regulatory and anti-apoptotic functions of thioredoxin depend on S-nitrosylation at cysteine 69, Nat Cell Biol. 2002, 4:743-749. […]
(§4) After removing acetone, protein pellet was resuspended in HENS buffer. […] Cav1 was then immunoprecipitated from each sample using monoclonal Cav1 antibody (BD Biosciences, San Jose, Calif.), where S-nitrosated Cav1 was detected by HRP-conjugated streptavidin following gel electrophoresis and Western blotting. […]

[2] = biological target: T2, C156S Cav1 (Mus musculus, UniProt P49817, C156S); test: Biotin-switch assay for Cav1 S-nitrosation in transfected HEK cells, C156S Cav1; format: cell-based; conditions: SNAP 20 μM, 10 min
T2 construct: A full-length mouse Cav1 cDNA clone in pCMV-SPORT6 vector; expressed in transfected cells; host or cells: HEK cells
T2 sequence (P49817 1-178 C156S): T1 sequence (P49817 1-178 C143S) with S143C, C156S
Experimental: as §1, §2, §3, §4

[3] = system: Cav1-cSrc binding; test: Co-immunoprecipitation in HEK cells co-transfected with mouse cSrc and Cav1; format: cell-based; conditions: 10 min
Experimental: (§5) Immunoprecipitation (IP) of Cav1 was conducted using a magnetic IP kit from Thermo Scientific (Waltham, Mass.). Protein lysates from total LV or isolated LV myocytes (with 1000 μg total protein) from control and ACES/8 mice were incubated with 10 μg of mouse anti-Cav1 monoclonal antibodies overnight at 4° C.
(§6) The immune complex was bound to protein A/G magnetic beads and collected with a magnetic stand. Proteins co-immunoprecipitated with Cav1 were eluted and subjected to gel electrophoresis and Western blotting using the antibodies described above where appropriate. The amount of proteins co-immunoprecipitated with Cav1 was normalized to total Cav1 co-immunoprecipitated in each sample. Similar methods were used to analyze the proteins that co-immunoprecipitated with Cav3 and cSrc using antibodies against Cav3 (mouse monoclonal, BD Biosciences, San Jose, Calif.) or cSrc (rabbit monoclonal, Cell Signaling Technology, Danvers, Mass.).
as §2
To test if increased Cav1 SNO could result in Cav1-cSrc dissociation, human embryonic kidney (HEK) cells transfected with mouse Cav1 and cSrc were treated with 20 μM nitric oxide (NO) donor S-nitroso-N-acetyl-DL-penicillamine (SNAP) or vehicle for 10 min.

[4] = biological target: T3, WT mouse Cav1 (Mus musculus, UniProt P49817); test: Biotin-switch assay for Cav1 S-nitrosation in transfected HEK cells, WT Cav1; format: cell-based; conditions: SNAP 20 μM, 10 min
T3 construct: A full-length mouse Cav1 cDNA clone in pCMV-SPORT6 vector; host or cells: HEK cells
T3 sequence (P49817 1-178): T1 sequence (P49817 1-178 C143S) with S143C
Experimental: as §2
S-nitrosated Cav1 was detected in cells (isolated ventricular cardiomyocytes from control and ACES/8 mice or HEK cells transfected with WT Cav1 or Cav1 mutants [C156S, C143S or C133S], with or without NO donor, SNAP [20 μM, 10 min], treatment) using the methods described in Jaffrey et al., Protein S-nitrosylation: a physiological signal for neuronal nitric oxide, Nat Cell Biol. 2001, 3:193-197; and Haendeler et al., Redox regulatory and anti-apoptotic functions of thioredoxin depend on S-nitrosylation at cysteine 69, Nat Cell Biol. 2002, 4:743-749.
Cells were lysed with HENS buffer (25 mM HEPES, pH 7.7, 0.1 mM EDTA, 0.01 mM neocuproine and 1% SDS) and centrifuged at 20,000 g for 15 min. The total cell protein was incubated in 20 mM methylmethanthiosulphate (MMTS) for 20 min at 50° C. and vortexed for 5 s every 2 min. Cellular protein was precipitated with acetone.
After removing acetone, protein pellet was resuspended in HENS buffer. […] Cav1 was then immunoprecipitated from each sample using monoclonal Cav1 antibody (BD Biosciences, San Jose, Calif.), where S-nitrosated Cav1 was detected by HRP-conjugated streptavidin following gel electrophoresis and Western blotting. The amount of S-nitrosated Cav1 was quantified and normalized to total Cav1 in each sample

[5] = biological target: T4, C133S Cav1 (Mus musculus, UniProt P49817, C133S); test: Biotin-switch assay for Cav1 S-nitrosation in transfected HEK cells, C133S Cav1; format: cell-based; conditions: SNAP 20 μM, 10 min
T4 construct: A full-length mouse Cav1 cDNA clone in pCMV-SPORT6 vector; expressed in transfected cells; host or cells: HEK cells
T4 sequence (P49817 1-178 C133S): T1 sequence (P49817 1-178 C143S) with C133S, S143C
Experimental: as §1, §2, §3, §4

[6] = system: ACE8/8 mice; conditions: cited from earlier work
[7] = system: Cx43; test: Western blot of LV protein lysates, Cx43; format: in vivo, mouse
Experimental: (§7) For Western blots, total protein lysates were prepared from the LV of 6 week-old WT control, ACE8/8 with and without 2 week treatment of mitochondria-targeted antioxidant (2-(2,2,6,6-Tetra-methylpiperidin-1-oxyl-4-ylamino)-2-oxoethyl)-triphenylphosphonium chloride (MitoTEMPO, see below), as well as from adult (2-4 month) Cav1−/− mice with and without 4 weeks treatment of cSrc inhibitor 1-(1,1-dimethylethyl)-[…]-1H-pyrazolo[3,4-d]pyrimidin-4-amine (PP1, see below).
(§8) In some cases, protein lysates were prepared from the LV cardiomyocytes isolated from ACE8/8 animals using described methods. 13 Total protein lysates were fractionated on 8-15% SDS-PAGE and transferred to PVDF membranes, incubated in 5% skim milk in PBS containing 0.1% Tween 20 (blocking buffer) for 1 h at room temperature, followed by overnight incubation at 4° C. with primary antibodies (rabbit monoclonal anti-cSrc, p-cSrc at Tyr416, Cx43, C-terminal Src kinase [CSK] and Tyr14 p-Cav1 antibodies from Cell Signaling, mouse monoclonal anti-Cav1 and Cav3 antibodies from BD Biosciences, rabbit monoclonal anti-eNOS, p-eNOS and nNOS antibodies from Santa Cruz).
(§9) For a loading control, the membranes were blotted with primary antibodies against glyceraldehydes-3-phosphate dehydrogenase (GAPDH) (Santa Cruz Biotech, Santa Cruz, Calif.). After washing, the membranes were incubated for 1 h at room temperature with alkaline phosphatase-conjugated secondary antibody diluted in blocking buffer, and bound antibodies were detected using a chemiluminescent alkaline phosphate substrate. Protein band intensities were quantified by densitometry (Quantity One Basic, Bio-Rad Laboratory, Hercules, Calif.) and the band densities of each protein in individual samples were normalized to that of GAPDH in the same sample.

[8] = system: p-cSrc at Tyr416; test: Western blot of LV protein lysates, p-cSrc; format: in vivo, mouse
Experimental: as §7, §8, §9

[9] = system: Cav1-cSrc binding; test: Co-immunoprecipitation with Cav1 in ACE8/8 LV, cSrc; format: in vivo, mouse; conditions: ACE8/8 mice, MitoTEMPO 0.7 mg/kg/day i.p. for 2 weeks, n=6
Experimental: as §5, §6

[10] = system: Cav1-eNOS interaction; test: Co-immunoprecipitation with Cav1 in ACE8/8 LV, eNOS; format: in vivo, mouse; conditions: ACE8/8 mice, MitoTEMPO 0.7 mg/kg/day i.p. for 2 weeks, n=6
Experimental: as §5, §6

[11] = system: Cav1−/− mice; test: LV epicardial conduction velocity measurement (72-electrode Flex-MEA); format: in vivo, mouse
Experimental: LV conduction velocity was measured in anesthetized WT (n=6) and Cav1−/− (with and without 4 week PP1 treatment, n=6 in each group) mice using a flexible multielectrode array (Flex-MEA, 72 electrodes) system (Multichannel systems, Reutlingen, Germany) according to manufacturer's instructions.
Mid-anterior LV epicardial electrical propagation was recorded under right-ventricular pacing (750 bpm); the color mapping of LV conduction propagation, as well as the calculation of LV conduction velocity, were carried out using Cardio 2D software (Multichannel systems, Reutlingen, Germany)

[12] = system: Cav1−/− mice; test: Programmed ventricular stimulation, ventricular arrhythmia inducibility; format: in vivo, mouse; conditions: 4 weeks of PP1, n=6, untreated Cav1−/− 75% inducible
Experimental: Surface electrocardiograms (ECG) were recorded and ventricular arrhythmia inducibility was determined in WT and Cav1^−/− with and without 4 weeks of PP1 treatment (n=4-6 in each group) using described methods under general anesthesia with isofurane as described in Berul et al., In vivo cardiac electrophysiology studies in the mouse, Circulation 1996, 94:2641-2648.
Surface electrocardiograms (ECG) were monitored and recorded with needle electrodes connected to a dual bioamplifier (PowerLab 26T, AD Instruments, Dunedin, New Zealand) as described in Yang et al., Exercise training and PI3Kα-induced electrical remodeling is independent of cellular hypertrophy and Akt signaling, J Mol Cell Cardiol. 2012, 53:532-541.
Programmed ventricular stimulation was performed with a RV epicardial electrode connected to STG1008 stimulator (Multichannel systems, Reutlingen, Germany), where eight consecutive beats were paced at 60 ms basic cycle length, followed by triple extrastimuli with incrementally deceasing cycle lengths between 20-55 ms, and inducible ventricular tachycardia was defined as >3 consecutive ventricular beats. See, Bevilacqua et al., A targeted disruption in connexin40 leads to distinct atrioventricular conduction defects, J Interv Card Electrophysiol. 2000, 4:459-467.

[13] = ACE8/8 mice, MitoTEMPO 0.7 mg/kg/day i.p. for 2 weeks
[14] = ACE8/8 mice, MitoTEMPO 0.7 mg/kg/day i.p. for 2 weeks, n=6
[15] = Cav1−/− mice, PP1 1.5 mg/kg/dose i.p. 3 times per week for 4 weeks, n=6, 1.5 mg/kg

Structure (SMILES): CC(=O)NC(C(=O)O)C(C)(C)SN=O (racemic) [SNAP, S-nitroso-N-acetyl-DL-penicillamine]
- Cav1 SNO (S-nitrosation), C143S Cav1 [1]: significantly increased
- Cav1 SNO (S-nitrosation), C156S Cav1 [2]: not
- interaction between cSrc and Cav1 (in words) ([3]; HEK cells co-transfected with mouse cSrc and Cav1, SNAP 20 μM, n=4): reduced
- decrease of Cav1-cSrc binding compared to control ([3]; HEK cells transfected with mouse Cav1 and cSrc, SNAP 20 μM): 58%
- Cav1 SNO (S-nitrosation), WT Cav1 [4]: significantly increased
- Cav1 SNO (S-nitrosation), C133S Cav1 [5]: significantly increased

Structure (SMILES): CC1(C)CC(NC(=O)C[P+](c2ccccc2)(c2ccccc2)c2ccccc2)CC(C)(C)N1[O] [MitoTEMPO, (2-(2,2,6,6-Tetra-methylpiperidin-1-oxyl-4-ylamino)-2-oxoethyl)-triphenylphosphonium chloride]
- elevated mitoROS in ACE8/8 hearts ([6]; MitoTEMPO 0.7 mg/kg/day i.p. for 2 weeks, to levels similar to WT controls): normalizes
- Cx43 expression in ACE8/8 mice ([6]; from Sovari et al. 2013): restores
- gap junction conduction in ACE8/8 mice ([6]; from Sovari et al. 2013): normalizes
- ventricular arrhythmias and sudden cardiac death in ACE8/8 mice ([6]; from Sovari et al. 2013): ameliorates
- increase of Cx43 expression compared to untreated ACE8/8 animals [7, 13]: 1.9 fold
- Cx43 downregulation in ACE8/8 LV (in words) [7, 14]: significantly attenuated
- reduction of cardiac cSrc phosphorylation compared to untreated ACE8/8 animals [8, 13]: 63%
- cSrc activation/phosphorylation in ACE8/8 LV (in words) [8, 14]: significantly attenuated
- Cav1-cSrc binding in ACE8/8 LV (in words) [9]: reversed; also recorded: restored
- Cav1-eNOS interaction in ACE8/8 LV (in words) [10]: reversed; also recorded: significantly reduced

Structure (SMILES): Cc1ccc(-c2nn(C(C)(C)C)c3ncnc(N)c23)cc1 [PP1, 1-(1,1-dimethylethyl)-1-(4-methylphenyl)-1H-pyrazolo[3,4-d]pyrimidin-4-amine]
- LV Cx43 expression / Cx43 downregulation (in words) [7, 15]: normalized; also recorded: prevented
- LV conduction velocity in Cav1−/− LV (in words) ([11]; 4 weeks of PP1 treatment): normalized
- LV conduction velocity ([11]; PP1 1.5 mg/kg/dose i.p. 3 times per week for 4 weeks, n=6, untreated Cav1−/− 0.35±0.03, WT 0.50±0.09): 0.43±0.01 mm/ms
- LV p-cSrc expression / cSrc phosphorylation (in words) [8, 15]: normalized; also recorded: prevented
- inducible for ventricular arrhythmias / VT with programmed stimulation [12]: 0%
